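96-well plates; 48 h exposure; 5 concentrations. Endpoints by linear interpolation between flanking doses. Not reached: highest tested concentration assigned. The concentration for 50% growth inhibition is given as GI50.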 Calls of active or inactive are those of the source. Cut-off read from the data, not from the text of the source: active = GI50 up to about 1.1 µM and inactive = higher.
What was measured:
Assay in all cases: NCI-60 cell line screen, 48 h
NCI/ADR-RES = test system: NCI/ADR-RES
COLO 205 = test system: COLO 205
NCI-H522 = test system: NCI-H522
MDA-MB-435 = test system: MDA-MB-435
SN12C = test system: SN12C
PC-3 = test system: PC-3
SK-MEL-2 = test system: SK-MEL-2
A549 = test system: A549
SF-295 = test system: SF-295
LOX IMVI = test system: LOX IMVI
HOP-62 = test system: HOP-62
HCT-116 = test system: HCT-116
OVCAR-8 = test system: OVCAR-8
CAKI-1 = test system: CAKI-1
ACHN = test system: ACHN
CCRF-CEM = test system: CCRF-CEM
SR = test system: SR
BT-549 = test system: BT-549
UO-31 = test system: UO-31
Hs-578T = test system: Hs-578T

SMILES	GI50 (NCI/ADR-RES)	GI50 (COLO 205)	GI50 (NCI-H522)	GI50 (MDA-MB-435)	GI50 (SN12C)	GI50 (PC-3)	GI50 (SK-MEL-2)	GI50 (A549)	GI50 (SF-295)	GI50 (LOX IMVI)	GI50 (HOP-62)	GI50 (HCT-116)	GI50 (OVCAR-8)	GI50 (CAKI-1)	GI50 (ACHN)	GI50 (CCRF-CEM)	GI50 (SR)	GI50 (BT-549)	GI50 (UO-31)	GI50 (Hs-578T)
O=C(O)CSc1ccccc1C(=O)O	> 100 µM (inactive)	> 100 µM (inactive)	> 100 µM (inactive)	> 100 µM (inactive)	> 100 µM (inactive)	> 100 µM (inactive)	> 100 µM (inactive)	> 100 µM (inactive)	> 100 µM (inactive)	> 100 µM (inactive)	> 100 µM (inactive)	> 100 µM (inactive)	> 100 µM (inactive)	> 100 µM (inactive)	> 100 µM (inactive)	> 100 µM (inactive)	> 100 µM (inactive)	> 100 µM (inactive)	> 100 µM (inactive)	> 100 µM (inactive)
Cc1nc2c(N3CCCC3)nc(N3CCNCC3)nc2nc1NCc1ccccc1	13 µM (inactive)	1.24 µM (inactive)	1.65 µM (inactive)	2.24 µM (inactive)	7.29 µM (inactive)	5.05 µM (inactive)	4.98 µM (inactive)	3.88 µM (inactive)	2.04 µM (inactive)	1.65 µM (inactive)	2.94 µM (inactive)	1.62 µM (inactive)	3.37 µM (inactive)	3.01 µM (inactive)	5.12 µM (inactive)	2.4 µM (inactive)	2.84 µM (inactive)	2.4 µM (inactive)	2.41 µM (inactive)	6.17 µM (inactive)
CC(=O)O[C@H]1C(=O)[C@@]2(C)[C@H]([C@H](OC(=O)c3ccccc3)[C@]3(O)C[C@H](OC(=O)[C@H](O)[C@@H](NC(=O)c4ccccc4)C4CCCCC4)C(C)=C1C3(C)C)[C@]1(OC(C)=O)CO[C@@H]1C[C@@H]2O	2.96 µM (inactive)	< 0.01 µM (active)	< 0.01 µM (active)	< 0.01 µM (active)		0.0468 µM (active)	17.3 µM (inactive)	< 0.0173 µM (active)	< 0.01 µM (active)	< 0.01 µM (active)	< 0.01 µM (active)	< 0.01 µM (active)	< 0.01 µM (active)	0.409 µM (active)	0.288 µM (active)	< 0.01 µM (active)	< 0.01 µM (active)	0.0143 µM (active)	0.313 µM (active)	< 0.01 µM (active)
NC(=O)C(c1ccccc1)N1OC2C(=O)N(Cc3ccccc3)C(=O)C2C1c1cccc(Oc2ccc(Cl)cc2)c1 (centres undefined)	34 µM (inactive)	17.5 µM (inactive)	28.7 µM (inactive)	27 µM (inactive)	16.4 µM (inactive)	33.4 µM (inactive)	22.2 µM (inactive)	31.4 µM (inactive)	38.5 µM (inactive)	15.7 µM (inactive)	42.1 µM (inactive)	19.4 µM (inactive)	39.7 µM (inactive)	14.9 µM (inactive)	20.4 µM (inactive)	36.1 µM (inactive)	22.7 µM (inactive)	34 µM (inactive)	2.73 µM (inactive)	49.1 µM (inactive)
O=C(Cc1ccccc1)NCCCN(CCCCN(CCCNC(=O)Cc1ccccc1)C(=O)OCc1ccccc1)C(=O)OCc1ccccc1	> 100 µM (inactive)	6.07 µM (inactive)	1.42 µM (inactive)	> 100 µM (inactive)	> 100 µM (inactive)	7.45 µM (inactive)	> 100 µM (inactive)	> 43 µM (inactive)	> 100 µM (inactive)	> 100 µM (inactive)	> 100 µM (inactive)	> 100 µM (inactive)	> 100 µM (inactive)	4.74 µM (inactive)	> 21.6 µM (inactive)	> 20.3 µM (inactive)	30.4 µM (inactive)	> 100 µM (inactive)	1.66 µM (inactive)	> 100 µM (inactive)
O=C1c2ccccc2C(=O)c2c(/C=C\N3CCCCC3)ccnc21	3.6 µM (inactive)	3.51 µM (inactive)	2.55 µM (inactive)	0.327 µM (active)	1.4 µM (inactive)	0.879 µM (active)	3.72 µM (inactive)	2.12 µM (inactive)	2.47 µM (inactive)	0.337 µM (active)	3.81 µM (inactive)	1.06 µM (active)	2.15 µM (inactive)	16.9 µM (inactive)	5.69 µM (inactive)	3.78 µM (inactive)	8.36 µM (inactive)	0.889 µM (active)	2.01 µM (inactive)	1.23 µM (inactive)
O=C(CNc1ccc(Cl)cc1)Nn1c(-c2ccccc2)nc2ccccc2c1=O	6.79 µM (inactive)	6.82 µM (inactive)	2.99 µM (inactive)	8.17 µM (inactive)	7.43 µM (inactive)	12.6 µM (inactive)	16 µM (inactive)	14.2 µM (inactive)	15.1 µM (inactive)	1.3 µM (inactive)	14.9 µM (inactive)	1.62 µM (inactive)	3.72 µM (inactive)	11.4 µM (inactive)	8.89 µM (inactive)	2.04 µM (inactive)	3.28 µM (inactive)	2.32 µM (inactive)	6.75 µM (inactive)	18.4 µM (inactive)

From ChEMBL document CHEMBL1201862, “PubChem BioAssay data set” (2004)
